Numbered stars: 1 amine (or outer) side, 2 acyl side, 3 side chain; on linkers, the order of the positions; unused ones are H or OH. Square brackets hold non-standard residues; d marks the D form. Side chains are listed from the residue outwards. Peptide text beside a SMILES is read from it. * marks the point of attachment. X2 = O=C(O)CC[C@H](NC(=O)N[C@@H](CCC(=O)N[C@H](CCCN*)C(=O)O)C(=O)O)C(=O)O; X1 = O=C(O)CC[C@H](NC(=O)N[C@@H](CCCCNC(=O)CCCCCCC(=O)*)C(=O)O)C(=O)O; DOTAGA = O=C(O)CN1CCN(CC(=O)O)CCN(C(CCC(=O)*)C(=O)O)CCN(CC(=O)O)CC1; dPhe(4-NH2) = Nc1ccc(C[C@@H](N)C(=O)O)cc1; Phe(4-NH2) = Nc1ccc(C[C@H](N)C(=O)O)cc1; d2Nal = N[C@H](Cc1ccc2ccccc2c1)C(=O)O; Suc = O=C(CCC(=O)[*:2])[*:1]
Columns and labels:
[1] = biological target: T1, human serum albumin (Homo sapiens, UniProt P02768); conditions: literature value of human serum albumin binding (Valko et al. or Yamazaki et al.); cited from earlier work
T1 sequence (P02768 25-609): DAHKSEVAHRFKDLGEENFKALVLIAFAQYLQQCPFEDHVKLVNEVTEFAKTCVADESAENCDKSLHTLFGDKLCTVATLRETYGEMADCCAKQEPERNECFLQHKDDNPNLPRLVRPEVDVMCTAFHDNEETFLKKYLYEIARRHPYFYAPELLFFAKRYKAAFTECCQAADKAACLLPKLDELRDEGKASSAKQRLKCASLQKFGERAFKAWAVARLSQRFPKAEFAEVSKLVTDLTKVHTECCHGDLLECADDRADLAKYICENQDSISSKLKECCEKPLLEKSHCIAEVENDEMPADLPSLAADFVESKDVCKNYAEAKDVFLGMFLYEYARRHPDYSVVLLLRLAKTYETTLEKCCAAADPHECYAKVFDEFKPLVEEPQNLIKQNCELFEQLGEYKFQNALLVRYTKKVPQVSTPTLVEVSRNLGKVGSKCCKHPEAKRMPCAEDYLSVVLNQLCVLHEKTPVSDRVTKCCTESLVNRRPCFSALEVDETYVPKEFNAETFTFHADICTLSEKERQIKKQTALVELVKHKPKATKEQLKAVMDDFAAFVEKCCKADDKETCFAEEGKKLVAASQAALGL

[2] = biological target: T1, human serum albumin; assay: Literature HSA binding of the reference substances used to calibrate the HSA column; conditions: logarithmic K of human serum albumin binding, from the literature HSA%
Protocol: (§1) The mobile phase was freshly prepared for each experiment and only used for one day. The column was kept at room temperature and each run was stopped after detection of the signal to reduce the acquisition time. All substances were dissolved in a 0.5mg/ml concentration in 50% 2-Propanol and 50% 50mM pH 6.9 ammonium acetate buffer. […] All nine reference substances were injected consecutively to establish a non-linear regression with OriginPro 2016G. […] Table 1: Reference substances used for the calibration of the HSA-column.

[3] = biological target: T2, human serum albumin (HSA) (Homo sapiens, UniProt P02768); type: in vitro ADME
T2 construct: purchased Daicel Chemical Industries, purchased from Chiral Technologies Europe (France)
T2 sequence (P02768 25-609): as above
Source text: The Fmoc-(9-fluorenylmethoxycarbonyl-) and all other protected amino acid analogs were purchased from Bachem (Bubendorf, Switzerland) or Iris Biotech (Marktredwitz, Germany). […] The tritylchloride polystyrene (TCP) resin was obtained from PepChem (Tubingen, Germany). Chematech (Dijon, France) delivered the chelator DOTAGA-anhydride. All necessary solvents and other organic reagents were purchased from either Alfa Aesar (Karlsruhe, Germany), Sigma-Aldrich (Munich, Germany) or VWR (Darmstadt, Germany). Solid phase synthesis of the peptides was carried out by manual operation using an Intelli-Mixer syringe shaker (Neolab, Heidelberg, Germany). […] Analysis of the peptides was performed by applying different gradients of 0.1% (v/v) trifluoroacetic acid (TFA) in H2O (solvent A) and 0.1% TFA (v/v) in acetonitrile (MeCN) (solvent B) with a constant flow of 1 mL/min (specific gradients are cited in the text). […] Human serum albumin (HSA) binding was determined using a Chiralpak HSA 50 x 3 mm 5µm Analytical Column connected to a Chiralpak HSA 10 x 3 mm 5µm Guard Cartridge (Daicel Chemical Industries) purchased from Chiral Technologies Europe (France). Nonlinear regression for the HSA binding was performed using OriginPro 2016G. Both retention times tR as well as the capacity factors K' are cited in the text. […] Radioactivity was detected through connection of the outlet of the UV-photometer to a Nal(TI) well-type scintillation counter from EG&G Ortec (Munich, Germany). […] ESI-mass spectra were acquired on an expression^L CMS mass spectrometer (Advion Ltd., Harlow, UK) and on a Varian 500-MS IT mass spectrometer (Agilent Technologies, Santa Clara, USA). For the HSA binding experiment a Chiralpak HSA 50 x 3 mm 5µm Analytical Column, (Daicel Chemical Industries, LTD) connected to a Chiralpak HSA 10 x 3 mm 5µm Guard Cartridge (Daicel Chemical Industries; Chiral Technologies Europe) was used.
as §1

[4] = type: physicochemical
Protocol: To a volume of 500 µL n-octanol, 0.5 to 1.0 MBq of the radiolabeled PSMA inhibitor in 500 µL PBS (pH = 7.4) was added and rigorously vortexted for 3 min (n = 6). For quantitative phase separation, the mixture was centrifuged at 6,000 g for 5 min (Biofuge 15, Heraus Sepatech, Osterode, Germany).

[5] = biological target: T3, PSMA (Homo sapiens, UniProt Q04609); assay: Internalization of radiolabeled PSMA inhibitors into cells (PMPA blockade); type: cell-based; design: endogenous in cells; LNCaP is named only for the xenografts; conditions: 177Lu-labeled inhibitors, 37°C; reference basis of the % not stated
T3 sequence (Q04609 whole entry): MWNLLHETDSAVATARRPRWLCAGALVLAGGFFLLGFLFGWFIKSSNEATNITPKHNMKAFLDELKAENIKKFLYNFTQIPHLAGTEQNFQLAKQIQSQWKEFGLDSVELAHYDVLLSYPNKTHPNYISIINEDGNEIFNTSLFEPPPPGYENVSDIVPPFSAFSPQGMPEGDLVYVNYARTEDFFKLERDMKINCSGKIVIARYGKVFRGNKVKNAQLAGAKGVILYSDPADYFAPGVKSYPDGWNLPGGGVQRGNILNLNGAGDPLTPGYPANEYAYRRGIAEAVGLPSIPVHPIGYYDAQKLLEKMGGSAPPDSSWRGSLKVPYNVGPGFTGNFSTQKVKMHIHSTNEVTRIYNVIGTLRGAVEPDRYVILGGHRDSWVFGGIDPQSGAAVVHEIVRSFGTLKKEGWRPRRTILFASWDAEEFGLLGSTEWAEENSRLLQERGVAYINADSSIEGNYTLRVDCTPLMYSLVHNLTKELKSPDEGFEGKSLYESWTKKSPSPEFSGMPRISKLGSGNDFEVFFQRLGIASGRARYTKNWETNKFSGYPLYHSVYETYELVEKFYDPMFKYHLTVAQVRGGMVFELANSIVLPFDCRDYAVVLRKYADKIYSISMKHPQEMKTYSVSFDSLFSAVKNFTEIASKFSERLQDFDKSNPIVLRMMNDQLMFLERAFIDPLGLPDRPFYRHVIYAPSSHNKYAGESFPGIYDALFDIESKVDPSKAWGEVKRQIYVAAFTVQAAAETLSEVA
Protocol: The ^177Lu-labeled compounds, for in vitro studies, were prepared as previously described (Sosabowski, J.K. and S.J. Mather, Conjugation of DOTA-like chelating agents to peptides and radiolabeling with trivalent metallic isotopes. Nat. Protocols, 2006. 1(2): p. 972-976) with minor modifications and used without further purification. In short, to a reaction volume of 10 µL 1.0 M NH4OAc buffer pH = 5.9 was added 0.75 to 1.0 nmol tracer (7.5 to 10 µL), 10 to 40 MBq ^177LuCl3 (Specific Activity (AS) > 3000 GBq/mg, 740 MBq/mL, 0.04 M HCl, ITG, Garching, Germany) and finally filled up to 100 µL with trace-pure Water (Merck, Darmstadt, Germany). The reaction mixture was heated for 30 min at 95°C and the radiochemical purity was determined using Radio-TLC.
[…] Each well was treated with either 25 µL of either DMEM-F12 (5% BSA) or a 100 µM PMPA solution for blockade. Next, 25 µL of the respective ^68Ga-and ^177Lu-labeled PSMA inhibitors (2.0 nM / 5.0 nM) was added and the cells incubated at 37°C for 5, 15, 30 and 60 min, respectively. The experiment was terminated by placing the 24-well plate on ice for 3 min and consecutive removal of the medium. Each well was rinsed with 250 µL HBSS and the fractions from these first two steps combined, representing the amount of free radioligand. Removal of surface bound activity was accomplished by incubation of the cells with 250 µL of ice-cold PMPA (10 µM in PBS) solution for 5 min and rinsed again with another 250 µL of ice-cold PBS. The internalized activity was determined by incubation of the cells in 250 µL 1.0 M NaOH and the combination with the fraction of a subsequent wash step with 250 µL 1.0 M NaOH. Each experiment (control and blockade) was performed in triplicate for each time point. Free, surface bound and internalized activity was quantified in a γ-counter.

[6] = biological target: T3, PSMA; assay: Determination of IC50: competitive binding against ([125I]I-BA)KuE on cells; design: endogenous in cells; LNCaP is named only for the xenografts; conditions: natLu complexes; displacement of ([125I]I-BA)KuE, 60 min on ice, HBSS (1% BSA)
Protocol: The corresponding ^natLu^III-complexes were prepared from a 2 mM aqueous solution of the PSMA inhibitor with a 2.5 molar excess of LuCl3 (20 mM solution), heated to 95 °C for 30 min. After cooling, the ^natLu^III-chelate formation was confirmed using HPLC and MS. […] Calculated monoisotopic mass (C67H92N11O23 Lu) = 1,593.6 found: m/z = 1,595.0 [M+H]^+, 798.2 [M+2H]^2+. [^natLu]DOTAGA-(4-NH2)f-y-nal-k-KuE ([^natLu]PSMA-5): HPLC (10 to 60% B in 15 min.): tR = 9.0 min K' = 3.5. Calculated monoisotopic mass (C76H102N13O24 Lu) = 1,755.7 found: m/z = 1,756.4 [M+H]^+, 879.0 [M+2H]^2+. [^natLu]DOTAGA-(4-NH2)F-y-nal-k-KuE ([^natLu]PSMA-6): HPLC (10 to 60% B in 15 min.): tR = 9.1 min K' = 3.6. Calculated monoisotopic mass (C76H102N13O24 Lu) = 1,755.7 found: m/z = 1,756.6 [M+H]^+, 878.8 [M+2H]^2+. [^natLu]DOTAGA-y-nal-k(Suc-(HO-δ-orn-γ-EuE))-OH ([^natLu]PSMA-7): HPLC (10 to 60 % B in 15 min): tR = 7.8 min K' = 2.9. Calculated monoisotopic mass (C67H89N12O26 Lu): 1,652.5 found: m/z = 1,653.9 [M+H]^+. [^natLu]DOTAGA-(4-NH2)f-y-nal-k(Suc-(HO-δ-orn-γ-EuE))-OH ([^natLu]PSMA-8): HPLC (10 to 60 % B in 15 min): tR = 7.3 min K' = 2.7. Calculated monoisotopic mass (C67H99N14O27Lu): 1,814.6 found: m/z = 1,815.9 [M+H]^+, 908.3 [M+2H]^2+. [^natLu]DOTAGA-(4-NH2)F-y-nal-k(Suc-(HO-δ-orn-γ-EuE))-OH ([^natLu]PSMA-9): HPLC (10 to 60 % B in 15 min): tR = 7.2 min K' = 2.6. Calculated monoisotopic mass (C67H99N14O27Lu): 1,814.6 found: m/z = 1,815.6 [M+H]^+, 908.3 [M+2H]^2+. [^natLu]DOTAGA-y-nal-k(Glut-(l-f)-KuE) ([^natLu]PSMA-10): HPLC (25 to 55% B in 15 min): tR = 10.6 min K' = 4.9. Calculated monoisotopic mass (C73H94IN12O24Lu): 1,825.5 found: m/z = 1,826.5 [M+H]^+, 913.8 [M+2H]^2+. [^natLu]DOTAGA-(4-NH2)f-y-nal-k(Glut-(l-f)-KuE) ([^natLu]PSMA-11): HPLC (10 to 60% B in 20 min): tR = 9.7 min K' = 3.9. Calculated monoisotopic mass (C82H104IN14O25Lu): 1,986.6 found: m/z = 1,987.5 [M+H]^+, 994.3 [M+2H]^2+.
The reaction solution was incubated for 10 min at RT, loaded on a cartridge and rinsed with 10 mL water (C18 Sep Pak Plus cartridge, preconditioned with 10 mL MeOH and 10 mL water). After elution with 2.0 mL of a 1:1 mix (v/v) of EtOH/MeCN, the radioactive solution was evaporated to dryness under a gentle nitrogen stream and treated with 200 µL TFA for 30 min with subsequent evaporation of TFA.
After removal of the culture medium, the cells were treated once with 500 µL of HBSS (Hank's balanced salt solution, Biochrom, Berlin, Germany, with addition of 1% bovine serum albumin (BSA)) and left 15 min on ice for equilibration in 200 µL HBSS (1% BSA). […] All experiments were performed at least three times for each concentration. After 60 min incubation on ice, the experiment was terminated by removal of the medium and consecutive rinsing with 200 µL of HBSS. The media of both steps were combined in one fraction and represent the amount of free radioligand. Afterwards, the cells were lysed with 250 µL of 1.0 M NaOH and united with the 200 µL HBSS of the following wash step. Quantification of bound and free radioligand was accomplished in a γ-counter.

Compound	Internalization [%] [5] [%]	IC50 [6] [nM]	Lit. HSA% [1] [%]	Log K HSA [2]	HSA [%] [3] [%]	logP [4]
Nc1ccccc1 [Aniline]			14.06	-0.79		
O=C(O)c1ccccc1 [Benzoic Acid]			34.27	-0.29		
CCCN(CCC)S(=O)(=O)c1ccc(C(=O)O)cc1 [Probenecid]			95.00			
Nc1ccc(C[C@@H](NC(=O)CCC(C(=O)O)N2CCN(CC(=O)O)CCN(CC(=O)O)CCN(CC(=O)O)CC2)C(=O)N[C@H](Cc2ccc(O)cc2)C(=O)N[C@H](Cc2ccc3ccccc3c2)C(=O)N[C@H](CCCCNC(=O)CCC(=O)NCCC[C@@H](NC(=O)CC[C@H](NC(=O)N[C@@H](CCC(=O)O)C(=O)O)C(=O)O)C(=O)O)C(=O)O)cc1 (stereo partly drawn) [[^nat/177Lu]PSMA-8, DOTAGA-(4-NH2)f-y-nal-k(Suc-(HO-δ-orn-γ-EuE))-OH, metal not drawn] ({DOTAGA}-[dPhe(4-NH2)][dY][d2Nal][dK]([Suc-X2])-OH)	207.3 ± 8.5	2.5 ± 0.6				-4.02 ± 0,25
Nc1ccc(C[C@H](NC(=O)CCC(C(=O)O)N2CCN(CC(=O)O)CCN(CC(=O)O)CCN(CC(=O)O)CC2)C(=O)N[C@H](Cc2ccc(O)cc2)C(=O)N[C@H](Cc2ccc3ccccc3c2)C(=O)N[C@H](CCCCNC(=O)CCC(=O)NCCC[C@@H](NC(=O)CC[C@H](NC(=O)N[C@@H](CCC(=O)O)C(=O)O)C(=O)O)C(=O)O)C(=O)O)cc1 (stereo partly drawn) [[^nat/177Lu]PSMA-9, DOTAGA-(4-NH2)F-y-nal-k(Suc-(HO-δ-orn-γ-EuE))-OH, metal not drawn] ({DOTAGA}-[Phe(4-NH2)][dY][d2Nal][dK]([Suc-X2])-OH)		2.5 ± 0.6				-4.01 ± 0.11

The next lines start with results.

Internalization [%] [5] [%]	IC50 [6] [nM]	Compound	Lit. HSA% [1] [%]	Log K HSA [2]	HSA [%] [3] [%]	logP [4]
75.5 ± 1.6		O=C(O)CC[C@H](NC(=O)N[C@@H](CCCCNC(=O)CCCCCCC(=O)NCCCC[C@@H](NC(=O)[C@@H](Cc1ccccc1)NC(=O)[C@@H](Cc1ccc(O)c(I)c1)NC(=O)CCC(C(=O)O)N1CCN(CC(=O)O)CCN(CC(=O)O)CCN(CC(=O)O)CC1)C(=O)O)C(=O)O)C(=O)O (stereo partly drawn) [[^nat/177Lu]PSMA-1, DOTAGA-(l-y)-f-k-KuE, metal not drawn, reference compound]			78.6	-4.12 ± 0.1
111.3 ± 11.1	5.8 ± 1	Nc1ccc(C[C@@H](NC(=O)CCC(C(=O)O)N2CCN(CC(=O)O)CCN(CC(=O)O)CCN(CC(=O)O)CC2)C(=O)N[C@H](Cc2ccc(O)cc2)C(=O)N[C@H](Cc2ccc3ccccc3c2)C(=O)N[C@H](CCCCNC(=O)CCCCCCC(=O)NCCCC[C@H](NC(=O)N[C@@H](CCC(=O)O)C(=O)O)C(=O)O)C(=O)O)cc1 (stereo partly drawn) [[^nat/177Lu]PSMA-5, DOTAGA-(4-NH2)f-y-nal-k-KuE, metal not drawn] ({DOTAGA}-[dPhe(4-NH2)][dY][d2Nal][dK](X1)-OH)				-4.11 ± 0.06
216.2 ± 9.2	3.1 ± 1	O=C(O)CC[C@H](NC(=O)N[C@@H](CCC(=O)N[C@H](CCCNC(=O)CCC(=O)NCCCC[C@@H](NC(=O)[C@@H](Cc1ccc2ccccc2c1)NC(=O)[C@@H](Cc1ccc(O)cc1)NC(=O)CCC(C(=O)O)N1CCN(CC(=O)O)CCN(CC(=O)O)CCN(CC(=O)O)CC1)C(=O)O)C(=O)O)C(=O)O)C(=O)O (stereo partly drawn) [[^nat/177Lu]PSMA-7, DOTAGA-y-nal-k(Suc-(HO-δ-orn-γ-EuE))-OH, metal not drawn, reference compound]				
